Reference: patent US5326882A, “Chemiluminescent 3-(substituted Adamant-2'-Ylidene) 1,2-dioxetanes” (Tropix, Inc., priority 1992, dated 1994)

Legend:
Assay type in all cases: biochemical
[1] = target: T1, alkaline phosphatase (Bos taurus, UniProt P19111); assay: Chemiluminescent signal and signal:background with enhancer polymers (Example XVII)
Protocol: Four sets of three tubes each, each tube in each set containing 450 μl of a 0.4 mM aqueous solution of one of the four 1,2-dioxetanes being compared in 0.1M diethanolamine containing 1 mM magnesium chloride, 0.02% sodium azide and 0.1% of the enhancer polymer, pH 10.0 (substrate buffer) were prepared and the background signal from each tube measured using a Berthold LB 952T luminometer (Berthold Instruments; Wildbad, Federal Republic of Germany).
Next, 50 μl of an aqueous solution, 2.83×10^-12 M of alkaline phosphatase in 0.1M diethanolamine containing 1 mM magnesium chloride, 0.02% sodium azide, pH 10.0, (final enzyme concentration 2.83×10^-13 M) was added to each tube and the chemiluminescent signals were measured in the luminometer at 5 and 20 minutes. The intensity of the chemiluminescent signals and the signal: background ratios obtained for each of the four 1,2-dioxetanes in the presence of the enhancer polymers are shown in Table III below.
The enhancer polymers used, and the symbols for such polymers used in Table III, were the following: […]

[2] = target: T1, alkaline phosphatase; assay: Alkaline phosphatase detection limits, LabSystems Luminoskan (Example XXV)
Protocol: The detection means for alkaline phosphatase with different chemiluminescent 1,2-dioxetane substrates were determined as follows: Duplicates of serial dilutions (1 to 3) of alkaline phosphates were incubated at room temperature with 0.4 mM dioxetane in 0.1 M diethanolamine, 1 mM MgCl2, pH 10.0, containing 1 mg/ml of either of the polymeric enhancers Enhancer 1 or Enhancer 2, in […].
Following either a 5 or a 20 minute incubation with a substrate, the chemiluminescence intensity was measured as a 5 second integrated Relative Light Units (RLU) and plotted as in FIG. 10. […] The alkaline phosphatase concentrations at twice background were used as the detection limits in Table 5.
The luminometer used in this example was LabSystems Luminoskan microtiter plate reader.

[3] = target: T1, alkaline phosphatase; assay: Half-time to plateau at low alkaline phosphatase concentration (Example XLI); conditions: 0.4 mM dioxetane at pH 10.0; 31.5° C.; 2.53 × 10^-13 M alkaline phosphatase
[4] = target: T2, alkaline phosphatase (calf intestine; Biozyme) (Bos taurus, UniProt P19111); assay: Total dephosphorylation, chemiluminescence decay (Example XIII); conditions: 30° C., carbonate/bicarbonate buffer
T2 construct: purchased Biozyme; host or cells: calf intestine
Protocol: A comparison of the total luminescence emission from AMPPD and from the corresponding 1,2-dioxetanes whose adamant-2'-ylidene groups are monosubstituted with hydroxy (A and B isomers), chloro and bromo groups was made by carrying out total dephosphorylation experiments on each of these compounds.
An aqueous solution of the 1,2-dioxetane (4.0 mm) in 0.05M sodium carbonate/sodium bicarbonate containing 1 mM magnesium chloride was prepared and then equilibrated at 30° C. Ten μl of a 7.64×10M aqueous solution of alkaline phosphatase (calf intestine; Biozyme) was then added, and the chemiluminescence from the resulting solution was recorded using a Turner Model 20E luminometer (Turner Instruments; Sunnyvale, Calif.).
The rates of chemiluminescence decay for each of the five compounds in question, expressed in relative light units (RLU's) per minute, are given in the following table.

T2 sequence (P19111 20-506 limits assumed): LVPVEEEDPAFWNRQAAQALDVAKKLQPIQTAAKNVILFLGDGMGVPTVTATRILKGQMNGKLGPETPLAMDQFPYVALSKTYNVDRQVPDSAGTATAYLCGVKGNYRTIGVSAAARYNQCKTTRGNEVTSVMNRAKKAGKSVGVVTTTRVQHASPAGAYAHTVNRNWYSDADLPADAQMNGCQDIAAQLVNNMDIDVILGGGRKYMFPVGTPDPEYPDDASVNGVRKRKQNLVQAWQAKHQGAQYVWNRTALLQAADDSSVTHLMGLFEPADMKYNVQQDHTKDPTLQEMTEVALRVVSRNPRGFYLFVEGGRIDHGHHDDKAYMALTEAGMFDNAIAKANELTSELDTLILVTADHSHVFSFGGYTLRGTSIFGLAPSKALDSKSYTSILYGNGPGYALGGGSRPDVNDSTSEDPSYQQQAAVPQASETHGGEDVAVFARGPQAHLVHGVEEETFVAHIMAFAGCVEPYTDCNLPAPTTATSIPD
T1 sequence (P19111 20-506 limits assumed): as above

For COC1(c2cccc(OP(=O)(O)O)c2)OOC12C1CC3CC(C1)CC2C3 (stereo not drawn) [AMPPD, 3-(4-methoxyspiro[1,2-dioxetane-3,2'-triyclo[3.3.1.1^3,7]decan]-4-yl)phenyl phosphate, reference compound], the S/N ([1]; polymer BAEDM, 5 min) was 107.6, the SIGNAL ([1]; polymer BAEDM, 5 min) was 9275.3 and the S/N ([1]; polymer BAEDM, 20 min) was 306.5. The SIGNAL ([1]; polymer BAEDM, 20 min) was 26529.1, the S/N ([1]; polymer BAEDM, time 0) was 1.0 and the SIGNAL ([1]; polymer BAEDM, time 0 (background, before enzyme)) was 217.3. It also gave a S/N ([1]; polymer BZ, 5 min) of 18.3, an SIGNAL ([1]; polymer BZ, 5 min) of 2738.0 and a S/N ([1]; polymer BZ, 20 min) of 30.9. The SIGNAL ([1]; polymer BZ, 20 min) was 4611.5, the S/N ([1]; polymer BZ, time 0) was 1.0 and the SIGNAL ([1]; polymer BZ, time 0 (background, before enzyme)) was 149.4. The S/N ([1]; polymer DAA TMQ, 5 min) was 46.4, the SIGNAL ([1]; polymer DAA TMQ, 5 min) was 8354.4 and the S/N ([1]; polymer DAA TMQ, 20 min) was 83.1. For the same molecule, the SIGNAL ([1]; polymer DAA TMQ, 20 min) was 14957.3, the S/N ([1]; polymer DAA TMQ, time 0) was 1.0 and the SIGNAL ([1]; polymer DAA TMQ, time 0 (background, before enzyme)) was 180.0. For the same molecule, the S/N ([1]; polymer DME(OH)B, 5 min) was 21.4, the SIGNAL ([1]; polymer DME(OH)B, 5 min) was 3462.3 and the S/N ([1]; polymer DME(OH)B, 20 min) was 52.9. The SIGNAL ([1]; polymer DME(OH)B, 20 min) was 8540.9, the S/N ([1]; polymer DME(OH)B, time 0) was 1.0 and the SIGNAL ([1]; polymer DME(OH)B, time 0 (background, before enzyme)) was 161.6. The S/N ([1]; polymer DMEB, 5 min) was 52.6, the SIGNAL ([1]; polymer DMEB, 5 min) was 9401.5 and the S/N ([1]; polymer DMEB, 20 min) was 114.4. For the same molecule, the SIGNAL ([1]; polymer DMEB, 20 min) was 20434.9, the S/N ([1]; polymer DMEB, time 0) was 1.0 and the SIGNAL ([1]; polymer DMEB, time 0 (background, before enzyme)) was 178.6. It also gave a S/N ([1]; polymer DMQ TEQ, 5 min) of 133.9, an SIGNAL ([1]; polymer DMQ TEQ, 5 min) of 32820.5 and a S/N ([1]; polymer DMQ TEQ, 20 min) of 322.1. For the same molecule, the SIGNAL ([1]; polymer DMQ TEQ, 20 min) was 78977.4, the S/N ([1]; polymer DMQ TEQ, time 0) was 1.0 and the SIGNAL ([1]; polymer DMQ TEQ, time 0 (background, before enzyme)) was 245.2. For the same molecule, the SIGNAL ([1]; polymer EMERALD (sapphire and fluorescein), time 0 (background, before enzyme)) was 2902.1, the S/N ([1]; polymer EMERALD, 5 min) was 109.4 and the SIGNAL ([1]; polymer EMERALD, 5 min) was 317571.6. The S/N ([1]; polymer EMERALD, 20 min) was 282.1, the SIGNAL ([1]; polymer EMERALD, 20 min) was 818775.8 and the S/N ([1]; polymer EMERALD, time 0) was 1.0. It also gave a S/N ([1]; polymer MPB, 5 min) of 94.3, an SIGNAL ([1]; polymer MPB, 5 min) of 19971.8 and a S/N ([1]; polymer MPB, 20 min) of 196.9. For the same molecule, the SIGNAL ([1]; polymer MPB, 20 min) was 41701.8, the S/N ([1]; polymer MPB, time 0) was 1.0 and the SIGNAL ([1]; polymer MPB, time 0 (background, before enzyme)) was 211.8. For the same molecule, the S/N ([1]; polymer NONE, 5 min) was 21.5, the SIGNAL ([1]; polymer NONE, 5 min, enzyme 2.83×10^-13 M) was 3706.0 and the S/N ([1]; polymer NONE, 20 min) was 34.4. For the same molecule, the SIGNAL ([1]; polymer NONE, 20 min, enzyme 2.83×10^-13 M) was 5944.8, the S/N ([1]; polymer NONE, time 0) was 1.0 and the SIGNAL ([1]; polymer NONE, time 0 (background, before enzyme)) was 172.6. It also gave a S/N ([1]; polymer S/TMQ(1:2), 5 min) of 20.2, an SIGNAL ([1]; polymer S/TMQ(1:2), 5 min) of 3437.0 and a S/N ([1]; polymer S/TMQ(1:2), 20 min) of 58.9. For the same molecule, the SIGNAL ([1]; polymer S/TMQ(1:2), 20 min) was 9994.7, the S/N ([1]; polymer S/TMQ(1:2), time 0) was 1.0 and the SIGNAL ([1]; polymer S/TMQ(1:2), time 0 (background, before enzyme)) was 169.8. For the same molecule, the S/N ([1]; polymer S/TMQ(1:4), 5 min) was 35.7, the SIGNAL ([1]; polymer S/TMQ(1:4), 5 min) was 5931.5 and the S/N ([1]; polymer S/TMQ(1:4), 20 min) was 95.4. It also gave an SIGNAL ([1]; polymer S/TMQ(1:4), 20 min) of 15866.3, a S/N ([1]; polymer S/TMQ(1:4), time 0) of 1.0 and an SIGNAL ([1]; polymer S/TMQ(1:4), time 0 (background, before enzyme)) of 116.3. It also gave an SIGNAL ([1]; polymer SAPPHIRE (BDMQ), time 0 (background, before enzyme)) of 241.4, a S/N ([1]; polymer SAPPHIRE, 5 min) of 159.3 and an SIGNAL ([1]; polymer SAPPHIRE, 5 min) of 38457.8. It also gave a S/N ([1]; polymer SAPPHIRE, 20 min) of 353.6, an SIGNAL ([1]; polymer SAPPHIRE, 20 min) of 85359.8 and a S/N ([1]; polymer SAPPHIRE, time 0) of 1.0. The SIGNAL ([1]; polymer TBQ-FLUOR (TBQ and fluorescein), time 0 (background, before enzyme)) was 4961.2, the S/N ([1]; polymer TBQ-FLUOR, 5 min) was 113.9 and the SIGNAL ([1]; polymer TBQ-FLUOR, 5 min) was 57271.6. It also gave a S/N ([1]; polymer TBQ-FLUOR, 20 min) of 291.4, an SIGNAL ([1]; polymer TBQ-FLUOR, 20 min) of 1445675.6 and a S/N ([1]; polymer TBQ-FLUOR, time 0) of 1.0. For the same molecule, the S/N ([1]; polymer TBQ, 5 min) was 191.2, the SIGNAL ([1]; polymer TBQ, 5 min) was 94429.4 and the S/N ([1]; polymer TBQ, 20 min) was 433.9. For the same molecule, the SIGNAL ([1]; polymer TBQ, 20 min) was 214319.4, the S/N ([1]; polymer TBQ, time 0) was 1.0 and the SIGNAL ([1]; polymer TBQ, time 0 (background, before enzyme)) was 493.9. The S/N ([1]; polymer TEQ, 5 min) was 115.3, the SIGNAL ([1]; polymer TEQ, 5 min) was 25095.8 and the S/N ([1]; polymer TEQ, 20 min) was 229.7. It also gave an SIGNAL ([1]; polymer TEQ, 20 min) of 50020.0, a S/N ([1]; polymer TEQ, time 0) of 1.0 and an SIGNAL ([1]; polymer TEQ, time 0 (background, before enzyme)) of 217.8. It also gave a S/N ([1]; polymer TMQ, 5 min) of 65.8, an SIGNAL ([1]; polymer TMQ, 5 min) of 10525.8 and a S/N ([1]; polymer TMQ, 20 min) of 141.1. It also gave an SIGNAL ([1]; polymer TMQ, 20 min) of 22558.3, a S/N ([1]; polymer TMQ, time 0) of 1.0 and an SIGNAL ([1]; polymer TMQ, time 0 (background, before enzyme)) of 159.9. The “Alkaline phosphatase detection limit (at 2× background)” value (from here on “Alkaline phosphatase detection limit”) ([2]; SAPPHIRE II, 5 MINUTE INCUBATION) was 0.0025 pM, the “Alkaline phosphatase detection limit” value ([2]; SAPPHIRE II, 20 MINUTE INCUBATION) was 0.0011 pM and the “Alkaline phosphatase detection limit” value ([2]; SAPPHIRE, 5 MINUTE INCUBATION) was 0.0038 pM. For the same molecule, the “Alkaline phosphatase detection limit” value ([2]; SAPPHIRE, 20 MINUTE INCUBATION) was 0.0014 pM, the “HALF-TIME TO PLATEAU (min.) AL LOW ALK PHOS CONCENTRATION” value [3] was 1.97 min and the “Total Decay Time” value [4] was 60 min. For the same molecule, the “Decay Rate I” value ([4]; RLU's per minute) was 0.1 RLU's per minute, the “Decay Rate II” value ([4]; RLU's per minute) was 0.3 RLU's per minute and the “Decay Rate III” value ([4]; RLU's per minute) was 0.8 RLU's per minute.
